Source: PubChem BioAssay AID1259333 (Broad Institute, 2017)
The source made the active and inactive calls. How the calls were made is not given here; tested in parental BL2 cells.

Assay: loss of cell viability by ATP content – CellTiter-Glo, cytotoxicity control, dose response (AID 1259333);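 further: 0% = vehicle neutral controls and -100% = reference inhibitor positive controls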
Conditions: cytotoxicity, CellTiter-Glo ATP luminescence; at 3.5 µM (top of the series)

Row | SMILES | activity change, negative = cytotoxicity
1 | C[C@@H]1CCCCO[C@@H](CN(C)CC2CCCCC2)[C@@H](C)CN([C@@H](C)CO)C(=O)c2cc(NC(=O)Nc3ccc(C(F)(F)F)cc3)ccc2O1 | 15% (inactive)

Same assay, conditions: cytotoxicity, CellTiter-Glo ATP luminescence; at 10 µM (top of the series)

Row | SMILES | activity change, negative = cytotoxicity
2 | N#C[C@H]1[C@@H](c2ccc(C#CC3CCCCC3)cc2)[C@H](CO)N1C(=O)Nc1ccc(F)cc1 | 22.4% (inactive)
3 | O=C(C1CCCC1)N1CC(=O)N2[C@@H](CO)[C@@H](c3ccc(C#CCc4ccccc4)cc3)[C@@H]2C1 | 53.6% (inactive)
4 | CCc1csc(N2[C@H](C#N)[C@H](c3ccc(C#Cc4ccc(F)cc4)cc3)[C@H]2CO)n1 | 30% (inactive)
5 | Cc1ccc(P(=O)(CSC(=N)N)c2ccc(C)cc2)cc1 | -36.8% (inactive)
6 | C[C@H](CO)N1C[C@H](C)[C@H](CN(C)C(=O)C2CCOCC2)Oc2ncc(C#CCc3ccccc3)cc2C1=O | 0.181% (inactive)
7 | CCOC(=O)c1c(SCCN2CCCC2)n(-c2ccccc2)c(=S)n(-c2ccccc2)c1=O | 63.8% (inactive)
8 | Cc1ccc(C(CC(=O)NCc2ccco2)c2ccc(OC(C)C)cc2)cc1 (stereo unspecified) | -3.48% (inactive)
9 | CC[C@@]1(O)C(=O)OCc2c1cc1n(c2=O)Cc2cc3cc(O)ccc3nc2-1 | 12.3% (inactive)
10 | CC(C)CC#Cc1ccc([C@@H]2[C@H]3CN(C(=O)Nc4ccccc4)CCCCN3[C@H]2CO)cc1 | 40.2% (inactive)
11 | Fc1ccccc1/C=C1\CCCC2=C1Nc1nnnn1C2c1ccccc1F (stereo unspecified) | 12.3% (inactive)
12 | COc1cccc2c1C(=O)c1c(O)c3c(c(O)c1C2=O)C[C@@](O)(C(C)=O)C[C@@H]3O[C@H]1C[C@H](N)[C@H](O)[C@H](C)O1 | 13.8% (inactive)
13 | N#C[C@H]1[C@H](c2ccc(C#Cc3ccccc3F)cc2)[C@H](CO)N1C(=O)C1CC1 | 91.9% (inactive)
14 | CCC(=O)NC(c1ccccc1OC)c1ccc2cccnc2c1O (stereo unspecified) | 40.2% (inactive)
15 | C[C@@H]1CN([C@@H](C)CO)C(=O)c2ccccc2-c2ccccc2CO[C@@H]1CN(C)C(=O)c1cc(Cl)cc(Cl)c1 | 38.8% (inactive)
16 | COc1ccc(S(=O)(=O)N(C)C[C@H]2Oc3ccc(NC(=O)Nc4ccc(C(F)(F)F)cc4)cc3C(=O)N([C@@H](C)CO)C[C@H]2C)cc1 | 24.4% (inactive)
17 | CCCn1c(NC(=O)c2cccc(S(=O)(=O)N3CCCC3)c2)nc2ccccc21 | 12.5% (inactive)
18 | Oc1cc(O)cc(/C=C/c2ccc(O)c(O)c2)c1 | 129% (inactive)
19 | COc1cc2c(cc1OC)C(=O)C(Br)CC2 (stereo unspecified) | 112% (inactive)
20 | CS(=O)(=O)c1ccc(C(=O)OCC(=O)NC(=O)C2CCCCC2)cc1[N+](=O)[O-] | 42.9% (inactive)
21 | CC1=CC(=O)c2c(O)cccc2C1=O | 112% (inactive)
